The values that follow come from the RepoRT retention time repository (doi:10.1021/acs.analchem.2c02893).

The series in a line: RP, Thermo Scientific Acclaim RSLC 120 C18, 100 × 2.1 mm, 2.2 µm, 30 °C, 0.2 mL/min, estimated dead time 1.1 min; A: 90% water + 10% methanol + 0.01% formic acid + 5 mM ammonium formate, pH 3.61; B: methanol + 0.01% formic acid + 5 mM ammonium formate, pH 3.61; gradient (min/%B) 0/1 1/1 2/39 13/99.9 15/99.9 15.1/1 20.1/1. The settings on record: stereoisomer not certain.
Take `COC(=O)C(NC(=O)c1nn(CCCCCF)c2ccccc12)C(C)(C)C` (configuration not stated) [ADB-5F]: the LC retention time is 11 min.

As to `CC(C)(C)C(NC(=O)c1cn(CC2CCCCC2)c2ccccc12)C(N)=O` (configuration not stated) [ADB-CHMICA], the LC retention time is 11.7 min. Next, `CC(C)(C)C(NC(=O)c1nn(Cc2ccc(F)cc2)c2ccccc12)C(N)=O` (configuration not stated) [ADB-FUBINACA]: 10.3 min.

In the case of `CC(C)(C)C(NC(=O)c1nn(CCCCCF)c2ccccc12)C(N)=O` (configuration not stated) [ADB-PINACA-5F], the LC retention time was 9.86 min. `CCCCCn1nc(C(=O)NC(C(N)=O)C(C)(C)C)c2ccccc21` (configuration not stated) [ADB-PINACA]: the LC retention time is 11.2 min. Next, `CC(C)(C)C(NC(=O)c1cn(CCCCCF)c2ccccc12)C(N)=O` (configuration not stated) [ADBICA-5F]: 9.72 min. Next, `CCCCCn1cc(C(=O)NC(C(N)=O)C(C)(C)C)c2ccccc21` (configuration not stated) [ADBICA]: 11.1 min. Next, `CCCCCn1nc(C(=O)NC23CC4CC(CC(C4)C2)C3)c2ccccc21` [AKB48 (APINACA)]: 14 min; `O=C(NC12CC3CC(CC(C3)C1)C2)c1nn(CCCCCF)c2ccccc12` [AKB48-5F (5F-APINACA)]: 12.9 min. Consider `O=C(c1ccccc1I)c1cn(CCCCCF)c2ccccc12` [AM-694], for which the LC retention time was 10.5 min. Next, `CN1CCCCC(n2cc(C(=O)c3cccc4ccccc34)c3ccccc32)C1` (configuration not stated) [AM-1220-Azepane]: 8.61 min; `CN1CCCCC1Cn1cc(C(=O)c2cccc3ccccc23)c2ccccc21` (configuration not stated) [AM-1220]: 8.09 min; `CN1CCCCC1Cn1cc(C(=O)C23CC4CC(CC(C4)C2)C3)c2ccccc21` (configuration not stated) [AM-1248]: 9.94 min. In the case of `O=C(c1cccc2ccccc12)c1cn(CCCCCF)c2ccccc12` [AM-2201], the LC retention time is 11.2 min. Next, `N#CCCCCn1cc(C(=O)c2cccc3ccccc23)c2ccccc21` [AM-2232]: 9.69 min; `CN1CCCCC1Cn1cc(C(=O)c2ccccc2I)c2ccccc21` (configuration not stated) [AM-2233]: 7.11 min; `COC(=O)C(NC(=O)c1nn(CCCCCF)c2ccccc12)C(C)C` (configuration not stated) [AMB-5F]: 10.5 min.

For the compound `COCCC(N)C(=O)O` (configuration not stated) [AMB], the LC retention time is 11.8 min. Next, `CC(=O)N(C)N(C(=O)C(=O)N(C)C)c1ccccc1` [AMDOPH]: 5.06 min. Next, `CC(N)Cc1c[nH]c2ccccc12` (stereo not drawn) [AMT (Alpha-Methyltryptamine)]: 4.44 min; `CCCCCn1cc(C(=O)NC23CC4CC(CC(C4)C2)C3)c2ccccc21` [APICA]: 13.2 min; `CC(=O)NCCCS(=O)(=O)O` [Acamprosat]: 1.4 min. Next, `CCCC(=O)Nc1ccc(OCC(O)CNC(C)C)c(C(C)=O)c1` (configuration not stated) [Acebutolol]: 4.78 min. Regarding `CC(=O)OC1CN2CCC1CC2` (configuration not stated) [Aceclidine], the LC retention time is 4.87 min. Next, `O=C(O)COC(=O)Cc1ccccc1Nc1c(Cl)cccc1Cl` [Aceclofenac]: 9.2 min; `COc1ccc2c(c1)c(CC(=O)OCC(=O)O)c(C)n2C(=O)c1ccc(Cl)cc1` [Acemetacin]: 9.9 min. Next, `COP(=O)(NC(C)=O)SC` (configuration not stated) [Acephate]: 3.11 min. Next, `CC(=O)c1ccc2c(c1)N(CCCN(C)C)c1ccccc1S2` [Acepromazine]: 7.47 min; `CC(=O)c1ccc2c(c1)N(CC(C)N(C)C)c1ccccc1S2` (configuration not stated) [Aceprometazine]: 7.26 min.

For the compound `CC(=O)Nc1ccc(-c2ccc(C=NN3CC(=O)NC3=O)o2)cc1` [Acetaminodantrolene], the LC retention time was 5.67 min. Next, `CC(=NC#N)N(C)Cc1ccc(Cl)nc1` [Acetamiprid]: 5.17 min; `CC(=O)Nc1nnc(S(N)(=O)=O)s1` [Acetazolamide]: 3.43 min; `CC(=O)OCCC(SC(C)=O)=C(C)N(C=O)Cc1cnc(C)nc1N` [Acetiamine]: 4.46 min. Next, `CCCc1nn(C)c2c(=O)[nH]c(-c3cc(C(=O)CN4CC(C)NC(C)C4)ccc3OCC)nc12` (configuration not stated) [Acetildenafil-Dimethyl]: 7.5 min. Next, `CCCc1nn(C)c2c(=O)[nH]c(-c3cc(C(=O)CN4CCN(CCO)CC4)ccc3OCC)nc12` [Acetildenafil-Hydroxy]: 6.94 min; `CCCc1nn(C)c2c(=O)[nH]c(-c3cc(C(=O)CN4CCN(C)CC4)ccc3OCC)nc12` [Acetildenafil-Nor]: 6.99 min. `CCCc1nn(C)c2c(=O)[nH]c(-c3cc(C(=O)CN4CCN(CC)CC4)ccc3OCC)nc12` [Acetildenafil]: the LC retention time is 7.01 min. Next, `CCOCN(C(=O)CCl)c1c(C)cccc1CC` [Acetochlor]: 10.2 min; `CC(=O)c1ccc(S(=O)(=O)NC(=O)NC2CCCCC2)cc1` [Acetohexamide]: 7.72 min; `CC(=O)Oc1ccccc1C(=O)O` [Acetylsalicylic acid_NH4 adduct]: 4.8 min. Next, `CSC(=O)c1cccc2nnsc12` [Acibenzolar-S-Methyl]: 9.65 min. As to `Nc1nc2c(ncn2COCCO)c(=O)[nH]1` [Aciclovir], the LC retention time was 2.34 min. Next, `O=C(O)c1cc(Oc2ccc(C(F)(F)F)cc2Cl)ccc1[N+](=O)[O-]` [Acifluorfen]: 8.95 min.

On to `Nc1c([N+](=O)[O-])ccc(Oc2ccccc2)c1Cl` [Aclonifen], for which the LC retention time is 10.9 min. Next, `CCN1CC2(COC)C(O)CC(OC)C34C5CC6(O)C(OC)C(O)C(OC(C)=O)(C5C6OC(=O)c5ccccc5)C(C(OC)C23)C14` (configuration not stated) [Aconitine]: 7.09 min; `CC1(C)C(C=CC(=O)OC(C(F)(F)F)C(F)(F)F)C1C(=O)OC(C#N)c1cccc(Oc2ccccc2)c1` (configuration not stated) [Acrinathrin]: 9.17 min; `Cc1ccc(C(=CCN2CCCC2)c2cccc(C=CC(=O)O)n2)cc1` [Acrivastine]: 6.66 min. Next, `CCOc1ccc(S(=O)(=O)O)c2cccnc12` [Actinoquinol]: 3.56 min. Next, `Nc1ncnc2nc[nH]c12` [Adenine]: 2.43 min; `CN(C)Cc1nnc2n1-c1ccc(Cl)cc1C(c1ccccc1)=NC2` [Adinazolam]: 8.28 min. Regarding `COc1ccc2cccc(CCNC(C)=O)c2c1` [Agomelatine], the LC retention time is 8.68 min. Next, `CCC1C2CC3C4N(C)c5ccccc5C45CC(C2C5O)N3C1O` (configuration not stated) [Ajmaline]: 5.19 min; `CCc1cccc(CC)c1N(COC)C(=O)CS(=O)(=O)O` [Alachlor-ESA]: 7.19 min; `CCc1cccc(CC)c1N(COC)C(=O)CCl` [Alachlor]: 10.3 min. Next, `CCOC(=O)CCN(Cc1ccccc1)SN(C)C(=O)ON=C(C)SC` [Alanycarb]: 10.8 min; `CCCS(=O)(=O)c1ccc2nc(NC(=O)OC)[nH]c2c1` [Albendazole sulfone]: 5.86 min; `CCCSc1ccc2nc(NC(=O)OC)[nH]c2c1` [Albendazole]: 9.19 min. Next, `CC(C)(C)NCC(O)c1ccc(O)c(CO)c1` (configuration not stated) [Albuterol / Salbutamol]: 3.23 min.

Turning to `CNC(=O)ON=CC(C)(C)S(C)(=O)=O` [Aldicarb-sulfone (Aldoxycarb)], the LC retention time is 3.75 min.

Take `CNC(=O)ON=CC(C)(C)S(C)=O` (configuration not stated) [Aldicarb-sulfoxide]: the LC retention time is 3.5 min.

`CNC(=O)ON=CC(C)(C)SC` [Aldicarb]: the LC retention time was 6.17 min.

In the case of `CC12CCC(=O)C=C1CCC1C2C(O)CC2(C=O)C(C(=O)CO)CCC12` (configuration not stated) [Aldosterone], the LC retention time is 7.78 min.

In the case of `COCCCOc1cc(CC(CC(N)C(O)CC(C(=O)NCC(C)(C)C(N)=O)C(C)C)C(C)C)ccc1OC` (configuration not stated) [Aliskiren], the LC retention time was 8.87 min. Next, `CC(NC(=O)C(N)CC(=O)O)C(=O)NC1C(C)(C)SC1(C)C` (configuration not stated) [Alitame]: 6.09 min; `C=CCN1CCCC1CNC(=O)c1cc2n[nH]nc2cc1OC` (configuration not stated) [Alizapride]: 3.62 min; `C=CCC1=C(C)C(OC(=O)C2C(C=C(C)C(=O)OC)C2(C)C)CC1=O` (configuration not stated) [Allethrin II]: 12.3 min. Next, `C=CCN(CC=C)C(=O)CCl` [Allidochlor]: 6.37 min. Next, `O=c1[nH]cnc2[nH]ncc12` [Allopurinol]: 2.19 min; `C=CCNc1nc(NCC=C)nc(N2CCN(C(c3ccc(F)cc3)c3ccc(F)cc3)CC2)n1` [Almitrine]: 13.4 min; `OCc1nnc2n1-c1ccc(Cl)cc1C(c1ccccc1)=NC2` [Alprazolam- alpha-Hydroxy]: 8.11 min.

In the case of `Cc1nnc2n1-c1ccc(Cl)cc1C(c1ccccc1)=NC2O` (configuration not stated) [Alprazolam-Hydroxy], the LC retention time is 7.81 min. With `Cc1nnc2n1-c1ccc(Cl)cc1C(c1ccccc1)=NC2` [Alprazolam], the LC retention time was 8.36 min. Next, `C=CCc1ccccc1OCC(O)CNC(C)C` (configuration not stated) [Alprenolol]: 6.71 min; `CN(C)c1nc(N(C)C)nc(N(C)C)n1` [Altretamine]: 10.1 min; `CCC(CN(C)C)(CN(C)C)OC(=O)c1ccccc1` [Alypin]: 6.07 min. With `NC12CC3CC(CC(C3)C1)C2` [Amantadine], the LC retention time is 4.86 min.

Consider `Nc1c(Br)cc(Br)cc1CNC1CCC(O)CC1` (configuration not stated) [Ambroxol], for which the LC retention time was 6.04 min.
